Results reported in ChEMBL document CHEMBL4385604, “Identification of Pyrrolo[2,3- d]pyrimidine-Based Derivatives as Potent and Orally Effective Fms-like Tyrosine Receptor Kinase 3 (FLT3) Inhibitors for Treating Acute Myelogenous Leukemia” (J Med Chem, 2019).
pIC50, pKd: −log10 of the molar value.

Assays:
[1] = Tmax in Sprague-Dawley rat at 5 mg/kg, po by LC-MS/MS analysis; format: ADME, organism-based; details: in vivo
[2] = target: Receptor-type tyrosine-protein kinase FLT3 (Homo sapiens, UniProt P36888, ITD); test: Binding affinity to human partial length FLT3 ITD mutant expressed in Escherichia coli measured after 1 hr by qPCR analysis
[3] = target: Receptor-type tyrosine-protein kinase FLT3 (Homo sapiens, UniProt P36888, R834Q); test: Binding affinity to human partial length FLT3 R834Q mutant (V592 to Y969 residues) expressed in HEK293 cells measured after 1 hr by qPCR analysis; format: cell-based
[4] = target: Receptor-type tyrosine-protein kinase FLT3 (Homo sapiens, UniProt P36888, D835H); test: Binding affinity to human partial length FLT3 D835H mutant (V592 to Y969 residues) expressed in Escherichia coli after 1 hr by qPCR analysis
[5] = target: Receptor-type tyrosine-protein kinase FLT3 (Homo sapiens, UniProt P36888, D835Y); test: Binding affinity to human partial length FLT3 D835Y mutant (Q580 to Y969 residues) expressed in Escherichia coli after 1 hr by qPCR analysis
[6] = target: Receptor-type tyrosine-protein kinase FLT3 (Homo sapiens, UniProt P36888, K663Q); test: Binding affinity to human partial length FLT3 K663Q mutant (V592 to Y969 residues) expressed in Escherichia coli after 1 hr by qPCR analysis
[7] = test system: Receptor-type tyrosine-protein kinase FLT3 (Homo sapiens), P36888 [UNDEFINED MUTATION]; test: Inhibition of FLT3 ITD mutant in human MV4-11 cells assessed as ratio of phosphorylated STAT5 to beta-actin level at 100 nM after 2 hrs by Western blot analysis relative to control; format: cell-based
MV4-11 [8] = test: Inhibition of MAPK in human MV4-11 cells assessed as ratio of phosphorylated ERK to beta-actin level at 30 nM after 2 hrs by Western blot analysis relative to control; format: cell-based
MOLM-13 [9] = test: Cell cycle arrest in human MOLM13 cells assessed as accumulation at G0/G1 phase at 3 nM after 24 hrs by propidium iodide staining-based flow cytometric analysis (reference value: 44.53%); format: functional
MV4-11 [10] = test: Cell cycle arrest in human MV4-11 cells assessed as accumulation at G0/G1 phase at 10 nM after 24 hrs by propidium iodide staining-based flow cytometric analysis (reference value: 48.76%); format: functional
MOLM-13 [11] = test: Cell cycle arrest in human MOLM13 cells assessed as accumulation at G2/M phase at 3 nM after 24 hrs by propidium iodide staining-based flow cytometric analysis (reference value: 13.52%); format: functional
MOLM-13 [12] = test: Cell cycle arrest in human MOLM13 cells assessed as accumulation at G2/M phase at 10 nM after 24 hrs by propidium iodide staining-based flow cytometric analysis (reference value: 13.52%); format: functional
MV4-11 [13] = test: Cell cycle arrest in human MV4-11 cells assessed as accumulation at G2/M phase at 3 nM after 24 hrs by propidium iodide staining-based flow cytometric analysis (reference value: 21.12%); format: functional
MV4-11 [14] = test: Cell cycle arrest in human MV4-11 cells assessed as accumulation at G2/M phase at 10 nM after 24 hrs by propidium iodide staining-based flow cytometric analysis (reference value: 21.12%); format: functional
MOLM-13 [15] = test: Cell cycle arrest in human MOLM13 cells assessed as accumulation at S phase at 3 nM after 24 hrs by propidium iodide staining-based flow cytometric analysis (reference value: 41.95%); format: functional
MV4-11 [16] = test: Cell cycle arrest in human MV4-11 cells assessed as accumulation at S phase at 3 nM after 24 hrs by propidium iodide staining-based flow cytometric analysis (reference value: 30.12%); format: functional
MOLM-13 [17] = test: Induction of apoptosis in human MOLM13 cells assessed as early apoptotic cells at 1 nM after 48 hrs by Annexin V/propidium iodide staining based flow cytometry (reference value: 5.97%); format: functional
MV4-11 [18] = test: Induction of apoptosis in human MV4-11 cells assessed as early apoptotic cells at 1 nM after 48 hrs by Annexin V/propidium iodide staining based flow cytometry (reference value: 2.76%); format: functional
MV4-11 [19] = test: Induction of apoptosis in human MV4-11 cells assessed as late apoptotic cells at 1 nM after 48 hrs by Annexin V/propidium iodide staining based flow cytometry (reference value: 2.83%); format: functional
RS4-11 = test: Antiproliferative activity against human RS4:11 cells harboring wild-type FLT3 measured after 72 hrs by MTT assay; format: functional, cell-based; details: RS4-11, 72 h
[20] = target: Mast/stem cell growth factor receptor Kit (Homo sapiens, UniProt P10721); test: Inhibition of recombinant human c-Kit (544 to end residues) using poly(Glu, Tyr) 4:1 as substrate measured after 40 mins in presence of [gamma-33P]-ATP by scintillation counting analysis
Chain of Mast/stem cell growth factor receptor Kit (P10721 whole entry): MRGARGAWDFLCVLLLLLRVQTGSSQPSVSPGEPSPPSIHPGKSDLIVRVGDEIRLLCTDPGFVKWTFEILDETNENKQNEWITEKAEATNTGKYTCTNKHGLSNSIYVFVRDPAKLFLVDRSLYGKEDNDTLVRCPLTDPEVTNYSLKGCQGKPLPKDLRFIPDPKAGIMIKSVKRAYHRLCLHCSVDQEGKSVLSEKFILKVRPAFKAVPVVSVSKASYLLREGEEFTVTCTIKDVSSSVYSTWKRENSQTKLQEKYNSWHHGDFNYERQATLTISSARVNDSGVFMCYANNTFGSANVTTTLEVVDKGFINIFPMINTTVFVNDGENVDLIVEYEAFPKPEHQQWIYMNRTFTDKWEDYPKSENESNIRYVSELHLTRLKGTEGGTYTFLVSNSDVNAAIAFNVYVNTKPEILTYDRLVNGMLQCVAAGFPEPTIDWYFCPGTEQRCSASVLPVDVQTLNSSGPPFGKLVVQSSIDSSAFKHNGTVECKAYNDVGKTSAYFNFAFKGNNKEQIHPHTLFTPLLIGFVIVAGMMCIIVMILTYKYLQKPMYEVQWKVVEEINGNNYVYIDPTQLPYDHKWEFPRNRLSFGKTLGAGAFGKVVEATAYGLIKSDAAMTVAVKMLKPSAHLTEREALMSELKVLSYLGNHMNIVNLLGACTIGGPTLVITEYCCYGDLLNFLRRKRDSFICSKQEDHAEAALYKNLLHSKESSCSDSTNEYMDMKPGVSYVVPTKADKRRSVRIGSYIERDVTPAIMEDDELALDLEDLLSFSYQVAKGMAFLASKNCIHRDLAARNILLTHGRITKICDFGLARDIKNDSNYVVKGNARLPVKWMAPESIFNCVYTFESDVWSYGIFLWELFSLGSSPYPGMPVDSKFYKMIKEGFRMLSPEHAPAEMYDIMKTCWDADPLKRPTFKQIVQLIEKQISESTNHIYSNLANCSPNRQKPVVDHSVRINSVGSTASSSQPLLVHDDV

MOLM-13 [21] = test: Induction of apoptosis in human MOLM13 cells assessed as necrotic cells at 10 nM after 48 hrs by Annexin V/propidium iodide staining based flow cytometry (reference value: 0.29%); format: functional
MOLM-13 [22] = test: Induction of apoptosis in human MOLM13 cells assessed as late apoptotic cells at 100 nM after 48 hrs by Annexin V/propidium iodide staining based flow cytometry (reference value: 5.52%); format: functional
MOLM-13 [23] = test: Induction of apoptosis in human MOLM13 cells assessed as necrotic cells at 100 nM after 48 hrs by Annexin V/propidium iodide staining based flow cytometry (reference value: 0.29%); format: functional
MOLM-13 [24] = test: Induction of apoptosis in human MOLM13 cells assessed as viable cells at 1 uM after 48 hrs by Annexin V/propidium iodide staining based flow cytometry (reference value: 88.2%); format: functional; details: MOLM-13, 48 h, read-out: Activity
MOLM-13 [25] = test: Induction of apoptosis in human MOLM13 cells assessed as necrotic cells at 1 uM after 48 hrs by Annexin V/propidium iodide staining based flow cytometry (reference value: 0.29%); format: functional
MOLM-13 [26] = test: Induction of apoptosis in human MOLM13 cells assessed as viable cells at 10 uM after 48 hrs by Annexin V/propidium iodide staining based flow cytometry (reference value: 88.2%); format: functional; details: MOLM-13, 48 h, read-out: Activity
MV4-11 [27] = test: Induction of apoptosis in human MV4-11 cells assessed as viable cells at 10 nM after 48 hrs by Annexin V/propidium iodide staining based flow cytometry (reference value: 94.4%); format: functional; details: MV4-11, 48 h, read-out: Activity
MV4-11 [28] = test: Induction of apoptosis in human MV4-11 cells assessed as necrotic cells at 10 nM after 48 hrs by Annexin V/propidium iodide staining based flow cytometry (reference value: 0.06%); format: functional
MV4-11 [29] = test: Induction of apoptosis in human MV4-11 cells assessed as early apoptotic cells at 1 uM after 48 hrs by Annexin V/propidium iodide staining based flow cytometry (reference value: 2.76%); format: functional
MV4-11 [30] = test: Induction of apoptosis in human MV4-11 cells assessed as late apoptotic cells at 1 uM after 48 hrs by Annexin V/propidium iodide staining based flow cytometry (reference value: 2.83%); format: functional
MV4-11 [31] = test: Induction of apoptosis in human MV4-11 cells assessed as early apoptotic cells at 10 uM after 48 hrs by Annexin V/propidium iodide staining based flow cytometry (reference value: 2.76%); format: functional
MV4-11 [32] = test: cells; details: Homo sapiens, MV4-11, 72 h
Description: Antiproliferative activity against human MV4-11 cells harboring FLT3-ITD mutant measured after 72 hrs by MTT assay

C=CCn1cc(-c2ccc(NC(=O)Nc3cc(C(C)(C)C)on3)cc2)c2c(N)ncnc21
Tmax [1]: 45 min | pKd [2]: 7.69 | pKd [3]: 7.99 | pKd [4]: 8.29 | pKd [5]: 8.11 | pKd [6]: 8.61 | fold change (FC) [7]: 0 | fold change (FC) (MV4-11 [8]): 0 | Activity (MOLM-13 [9]): 83.62% | Activity (MV4-11 [10]): 95.74% | Activity (MOLM-13 [11]): 4.55% | Activity (MOLM-13 [12]): 2.37% | Activity (MV4-11 [13]): 4.08% | Activity (MV4-11 [14]): 2.2% | Activity (MOLM-13 [15]): 11.83% | Activity (MV4-11 [16]): 8.81% | Activity (MOLM-13 [17]): 5.67% | Activity (MV4-11 [18]): 2.56% | Activity (MV4-11 [19]): 4.62% | pIC50 (RS4-11): < 6.00 | pIC50 [20]: < 6.52 | Activity (MOLM-13 [21]): 0.12% | Activity (MOLM-13 [22]): 21.5% | Activity (MOLM-13 [23]): 0.19% | viability at 1 µM (MOLM-13 [24]): 29% | Activity (MOLM-13 [25]): 0.62% | viability at 10 µM (MOLM-13 [26]): 0.48% | viability at 0.01 µM (MV4-11 [27]): 79.3% | Activity (MV4-11 [28]): 0.2% | Activity (MV4-11 [29]): 19.9% | Activity (MV4-11 [30]): 24.8% | Activity (MV4-11 [31]): 13.4% | pIC50 (MV4-11 [32]): 10.05
